The molecules below were run against T1, stearoyl-CoA desaturase (SCD) (Rattus norvegicus, UniProt P07308) (assay: SCD assay, rat liver microsomes with [3H]stearoyl CoA (adapted from Talamo and Bloch)). Conditions: second table, same SCD assay.
T1 construct: from tissue; host or cells: liver microsomes of male Sprague Dawley rats, with SCD induced by a carbohydrate-rich diet
T1 sequence (P07308 1-358): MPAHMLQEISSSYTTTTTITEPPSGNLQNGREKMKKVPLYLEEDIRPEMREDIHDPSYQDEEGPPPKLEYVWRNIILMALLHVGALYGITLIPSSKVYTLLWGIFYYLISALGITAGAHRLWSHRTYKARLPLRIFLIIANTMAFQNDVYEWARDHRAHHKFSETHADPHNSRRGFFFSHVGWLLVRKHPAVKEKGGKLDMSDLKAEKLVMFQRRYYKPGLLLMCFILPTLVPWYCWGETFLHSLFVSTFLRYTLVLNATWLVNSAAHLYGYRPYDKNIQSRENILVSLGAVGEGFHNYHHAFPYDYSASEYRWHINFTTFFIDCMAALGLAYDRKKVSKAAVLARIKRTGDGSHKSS
Type: biochemical
From the text: The identification of compounds of the invention as SCD inhibitors was readily accomplished using the SCD enzyme and microsomal assay procedure described in Talamo and Bloch (1969) Analytical Biochemistry 29:300-304.
The rat liver microsomes were collected according to the procedure described in Ozols (1990) Methods Enzm, 182:225.
Male Spraque Dawley Rats were placed on regimented fasting protocol for one week to stimulate SCD enzymatic activity. 48-hour periods were alternated between feeding and fasting to induce and down-regulate SCD activity with SCD activity being induced via carbohydrate rich diet prior to liver perfusion and collection.
The rats were anesthetized with Isoflurane inhalation anesthetic, the liver perfused with cold phosphate buffered saline (PBS), weighed, and chilled in cold homogenization buffer (250 mM sucrose, 10 mM Tris, 1 mM EDTA, pH 7.6.
The livers were finely minced and placed in homogenization tube. 40 mL of homogenization buffer was added to the homogenization tube and the liver homogenized and centrifuged in a pre-chilled SLA-600 TC at 800G rotor for 10 min at 4° C.
Following centrifugation, the supernatant was collected and the pellet removed and discarded. This supernatant was then centrifuged at 10,000G for 35 minutes. Following centrifugation, the supernatant was collected and the pellet discarded. The supernatant was further centrifuged in a pre-chilled 45-Ti rotor at 130,000 G (41,000 RPM) for 90 minutes at 4° C.
The supernatant was then aspirated off and the collected microsomal pellet washed in 25 mL of Glycerol PBS (1×PBS 7.4, 20% Glycerol) and resuspended in 4-5 volumes of Glycerol PBS.
The protein concentration of the microsomal preparation was determined by BCA assay (Pierce) and the microsomes were aliquoted and stored at −80° C.
Biobeads were ground to a smaller size in a mortar and pestle and filtered through 300 μM mesh and then resuspended in 3.6% TCA.
SCD was determined in the desaturase assay buffer. This assay buffer contained 0.1 M Tris buffer, pH 7.2, 2 mM NADH, 4.8 mM ATP, 0.5 mM CoA, 4.8 mM MgCl2, and 0.1% BSA.
1 μl of each compound of Formula I was added to an assay plate by a low volume (0.5-10 μL) multichannel pipette. A DMSO control was also prepared. The microsomes were quickly thawed and added to assay buffer so that a concentration of 1-0.1 mg/ml was achieved (0.5-0.05 mg/ml assay final). 50 μl of the microsome suspension in assay buffer was then added into each well in the compound assay plate, the plate was covered, and the microsomes preincubated with the compounds for 30-60 minutes on the orbital shaker, 50-75 rpm, at room temperature.
After preincubation, the reaction was initiated by the addition of 50 μl of substrate solution (20 μM Stearoyl CoA, [3H]Stearoyl CoA, 74nCi) to the preincubated microsomes/compound suspensions in MilliQ (Millipore) H2O. The reaction mixtures were then incubated for 45 minutes on the orbital shaker at 50-75 rpm at room temperature.
The reaction was terminated by the addition of 10 μl of 21% trichloroacetic acid (TCA) to the reaction mixture followed incubation on the orbital shaker for 30 minutes at 50-75 rpm at room temperature followed by centrifugation for 5 minutes at 3700 rpm.
50 μl of a 6% Bio-Bead suspension in H2O was added to the reaction mixture and the assay plate was sealed. The Bio-Bead mixture was incubated on the orbital shaker for 1 to 24 hours, 100-150 rpm at room temperature, and then the mixture was centrifuged at 2000g for 5 minutes to pellet the Bio-Beads.
25 μl of the supernatant was harvested from each well and transferred to a detection plate. 100 μl of OptiPhase SuperMix scinitillation cocktail (containing sufficient NaOH to neutralize the TCA) was added and the solutions mixed by vigorous shaking (300-400 rpm) for 5 minutes at room temperature.
In the case of `COc1ccc(-c2nc3ccc(NCc4ccc(Cl)c(Cl)c4)nc3n(CCNC(=O)CN)c2=O)cc1` [compound 40, 2-amino-N-(2-(6-(3,4-dichlorobenzylamino)-2-(4-methoxyphenyl)-3-oxopyrido[2,3-b]pyrazin-4(3H)-yl)ethyl)acetamide], the IC50 is reported as 1900 nM. `Cc1nc2ccc(NCc3cccc(C(F)(F)F)c3)cc2n(CCNC(N)=O)c1=O` [compound 53, 1-(2-(3-methyl-2-oxo-7-(3-(trifluoromethyl)benzylamino)quinoxalin-1(2H)-yl)ethyl)urea] showed an IC50 of 15 nM. In the case of “N-(2-(6-(2-chlorobenzylamino)-2-(4-methoxyphenyl)-3-oxopyrido[2,3-b]pyrazin-4(3H)-yl)ethyl)acetamide [compound 1]”, the IC50 is reported as 4100 nM. In the case of “N-(2-(3-methyl-2-oxo-7-(3-(trifluoromethyl)benzylamino)quinoxalin-1(2H)-yl)ethyl)thiophene-3-carboxamide [compound 51]”, the IC50 is reported as 2.6 nM. In the case of `COCCOc1ccc(-c2nc3ccc(NCc4cccc(C(F)(F)F)c4)nc3n(CCNC(C)=O)c2=O)cc1` [compound 23, N-(2-(2-(4-(2-methoxyethoxy)phenyl)-3-oxo-6-(3-(trifluoromethyl)benzylamino)pyrido[2,3-b]pyrazin-4(3H)-yl)ethyl)acetamide], the IC50 is reported as 230 nM. `CC(=O)NCCn1c(=O)cnc2ccc(NCc3cccc(C(F)(F)F)c3)nc21` [compound 7, N-(2-(3-oxo-6-(3-(trifluoromethyl)benzylamino)pyrido[2,3-b]pyrazin-4(3H)-yl)ethyl)acetamide] was tested, and the IC50 was 220 nM. Work on “3-(3-oxo-6-(3-(trifluoromethyl)benzylamino)-2-(4-(trifluoromethyl)phenyl)pyrido[2,3-b]pyrazin-4(3H)-yl)propanamide [compound 38]” yielded an IC50 of 130 nM. `CONC(=O)CCn1c(=O)c(-c2ccc(OC)cc2)nc2ccc(NCc3cccc(C(F)(F)F)c3)nc21` [compound 16, N-methoxy-3-(2-(4-methoxyphenyl)-3-oxo-6-(3-(trifluoromethyl)benzylamino)pyrido[2,3-b]pyrazin-4(3H)-yl)propanamide] was tested, and the IC50 was 930 nM.

Reference: patent US7893066B2, “Pyridol[2,3-B]pyrazinones for use as stearoyl CoA desaturase inhibitors” (Gilead Palo Alto, Inc., priority 2006, dated 2011)
